ChEMBL document CHEMBL5046279, “Discovery of a Partial Glucokinase Activator Clinical Candidate: Diethyl ((3-(3-((5-(Azetidine-1-carbonyl)pyrazin-2-yl)oxy)-5-isopropoxybenzamido)-1H-pyrazol-1-yl)methyl)phosphonate (BMS-820132)” (J Med Chem, 2022)
Calls of active or inactive are those of the source.

Assays:
Assay type in all cases: functional, organism-based
Mus musculus [1] = test: Anti-hyperglycemic activity in C57BL/6J DIO mouse assessed as reduction in plasma glucose level at 0.3 umol/kg at 120 mins post dose by OGTT; conditions: dose 0.3 µM/Kg
Mus musculus [2] = species: Mus musculus; test: Anti-hyperglycemic activity in C57BL/6J DIO mouse assessed as reduction in plasma glucose level incubated for 1 hr by OGTT; conditions: dose 1-10 µM/Kg
Mus musculus [3] = test: Anti-hyperglycemic activity in C57BL/6J DIO mouse assessed as reduction in plasma glucose level at 3 to 30 umol/kg measured on day 1 by OGTT; conditions: dose 3-30 µM/Kg

Measured: Activity

CCOP(=O)(Cn1ccc(NC(=O)c2cc(Oc3cnc(C(=O)N4CCC4)cn3)cc(OC(C)C)c2)n1)OCC
active: Mus musculus [1] | Mus musculus [2] Dose-Dependent Effect | Mus musculus [3]
